Data on 42 compounds can be found in US9868748B2, “Thiazolopyrrolidine inhibitors of ROR- γ” (Vitae Pharmaceuticals, Inc., priority 2013, dated 2018).

Where only a bound is given, the exact number is not on record here.

The target of assay [1] is full-length RORγt in Jurkat cells (Homo sapiens (Human), UniProt P51449). Put plainly: RORγt 5xRORE Assay in Jurkat Cells (Assay 2). The class given is cell-based. The settings on record: Nanoluc luciferase reporter, 16-18 hrs, Table 9, read-out: RORγt5X IC50 Range*. On the procedure: [formula] RORγt 5xRORE Assay in Jurkat Cells (Assay 2)
Compounds of the present invention were tested for RORγ inverse agonist activity in a cell-based, transcriptional activity assay. Secreted Nanoluc® luciferase was used as a reporter for transcriptional activity of the full-length RORγt in Jurkat cells (ATCC, Cat. # TIB-152). A reporter plasmid was constructed by inserting 5 repeats of the ROR Response Element (RORE) […] (SEQ ID NO:1) into a commercially available promoterless plasmid pNL1.3[secNluc] (Promega, Cat. # N1021) using KpnI and HindIII restriction sites. The expression plasmid for RORγt was purchased (Geneocopoeia, Cat. # EX-T6988-M02). Jurkat cells (30 million cells) were transfected with 11 μg of EX-T6988-MO2 and 26 μg of the reporter plasmid in OptiMEM® media using Lipofectamine® LTX and Plus™ reagents (Life Technologies, Cat. #15338-100). After 5-6 h of incubation at 37° C./5% CO2, the cells were collected, resuspended in phenol-red free RPMI media containing 10% (v/v) delipidated FBS (Hyclone, Cat. # SH30855.03) and dispensed into 96-well clear bottom tissue culture plates (CoStar, Cat. #3603), at 80,000 cells per well. Tested compounds were added to the cells in the same media (final concentration of DMSO was 0.1% (v/v)), and the plates were incubated at 37° C./5% CO2 for 16-18 hrs. Luciferase activity in the conditioned supernatants was determined with NanoGlo® assay reagents (Promega, Cat. # N1130).
Background: In a reporter assay the amount or activity of a reporter protein is the signal.

The target of assay [2] is recombinant RORγ Ligand Binding Domain (LBD) protein (Homo sapiens (Human), UniProt P51449). Kind of assay: Radio-Ligand RORγ Binding Assay (Assay 1). The conditions noted are these: competition with 25-hydroxy [26,27-3H]-cholesterol, SPA; Table 9; read-out: RORγ Binding Ki Range*. The procedure:
Radio-Ligand RORγ Binding Assay (Assay 1)
Compounds of the present invention were tested for ability to bind to RORγ in a cell-free competition assay with commercially available radio-ligand (RL), 25-hydroxy [26,27-^3H]— cholesterol (PerkinElmer, Cat. # NET674250UC), for a ligand binding site on a recombinant RORγ Ligand Binding Domain (LBD) protein expressed as a 6×His-Glutathione-S-Transferase (GST) fusion (“6×His” disclosed as SEQ ID NO: 2). The assay was performed in 96-well SPA plates (PerkinElmer, Cat. #1450-401) in 50 mM HEPES buffer, pH 7.4, containing 150 mM NaCl, 5 mM MgCl2, 10% (v/v) glycerol, 2 mM CHAPS, 0.5 mM β-octylglucopyranoside and 5 mM DTT. Tested compounds were dissolved in DMSO, and semi-log (3.162×) serial dilutions of the compounds were prepared in the same solvent. Two μL of the DMSO solutions were mixed with 28 μL of 8.6 nM 25-hydroxy [26,27-^3H]— cholesterol and 50 μL of 24 nM RORγ LBD. The plate was shaken at 700 rpm for 20 min and incubated for 10 min at rt, after which 40 μL of poly-Lys YSi SPA beads (PerkinElmer, Cat. # RPNQ0010) were added to achieve 50 μg of the beads per well. The plate was incubated on an orbital shaker for 20 min and then for 10 min without agitation at rt. SPA signal for tritium beta radiation was registered on PerkinElmer Microbeta plate reader. Percent inhibition values were calculated based on the high signal obtained with DMSO control and the low signal observed with 10 μM standard RORγ inverse agonist T0901317 (SigmaAldrich, Cat. # T2320). The percent inhibition vs. concentration data were fit into a four-parameter model, and […] values were calculated from the fit as the concentrations corresponding to the inflection points on the dose-response curves. Inhibitory constants (Ki) were calculated using the following equation, where [RL] is the concentration in the assay and KD is a dissociation constant of 25-hydroxy [26,27-^3H]-cholesterol: […]

recombinant RORγ Ligand Binding Domain (LBD) protein, sequence (P51449 269-508): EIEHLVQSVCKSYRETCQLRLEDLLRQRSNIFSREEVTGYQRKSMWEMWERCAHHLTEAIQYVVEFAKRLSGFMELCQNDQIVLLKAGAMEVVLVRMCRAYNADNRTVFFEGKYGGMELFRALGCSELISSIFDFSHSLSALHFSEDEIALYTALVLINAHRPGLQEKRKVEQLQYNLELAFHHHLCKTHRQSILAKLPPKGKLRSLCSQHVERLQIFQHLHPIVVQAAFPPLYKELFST
full-length RORγt in Jurkat cells, sequence (P51449 other isoform, or with tags, fused parts or gaps): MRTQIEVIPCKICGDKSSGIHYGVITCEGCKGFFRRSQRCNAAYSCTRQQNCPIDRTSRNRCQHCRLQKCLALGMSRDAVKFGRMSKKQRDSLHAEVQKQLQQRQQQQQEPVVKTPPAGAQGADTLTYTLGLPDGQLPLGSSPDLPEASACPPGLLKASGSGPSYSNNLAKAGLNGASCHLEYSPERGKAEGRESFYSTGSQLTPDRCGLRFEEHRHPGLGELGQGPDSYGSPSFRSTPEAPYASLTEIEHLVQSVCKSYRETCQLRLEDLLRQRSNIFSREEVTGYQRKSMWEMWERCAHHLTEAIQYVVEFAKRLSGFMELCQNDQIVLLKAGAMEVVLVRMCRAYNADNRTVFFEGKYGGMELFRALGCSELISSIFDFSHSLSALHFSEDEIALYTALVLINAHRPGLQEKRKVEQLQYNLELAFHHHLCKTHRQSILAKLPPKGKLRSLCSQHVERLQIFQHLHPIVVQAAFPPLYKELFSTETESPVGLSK

The term IC50 denotes the concentration at which inhibition is half-maximal. Usually Ki stands for a dissociation constant, usually derived from enzyme kinetics or from competition with a known ligand. With `CCS(=O)(=O)c1ccc(CC(=O)Nc2nc3c(s2)CN(Cc2ccc(-c4ccc(=O)n(C)c4)cc2)[C@H]3C(C)C)nc1`, the half-maximal inhibitory concentration (IC50) in assay [1] is less than 100 nM. Moreover, the Ki in assay [2] is less than 100 nM.
`CCS(=O)(=O)c1ccc(CC(=O)Nc2nc3c(s2)CN(Cc2ccc(C(F)(F)F)nc2)C3C(C)C)nc1` (stereo not drawn): the IC50 in assay [1] was less than 100 nM. In addition, in assay [2], the Ki was less than 100 nM.
For the compound `CCS(=O)(=O)c1cnc(CNC(=O)c2nc3c(s2)CN(Cc2ccc(C#N)cc2)[C@H]3C(C)C)nc1`, the IC50 in assay [1] lay in the range of 100 to 1000 nM. For the same compound, the Ki in assay [2] is less than 100 nM.
The corresponding values for `CCS(=O)(=O)c1cnc(CNC(=O)c2nc3c(s2)CN(Cc2ccc(C(F)(F)F)cc2)[C@H]3C(C)C)nc1` are 100 to 1000 nM and less than 100 nM.
With `CC(C)[C@H]1c2nc(NC(=O)Cc3ccc(C#N)cc3)sc2CN1Cc1ccc(C#N)c(OC(F)F)c1`, the IC50 in assay [1] was in the range of 100 to 1000 nM. The Ki in assay [2] is less than 100 nM.
The like results for `Cc1cc(CN2Cc3sc(NC(=O)Cc4ccc(C#N)cc4)nc3[C@@H]2C(C)C)ccc1C#N` were, in that order, 100 to 1000 nM and less than 100 nM.
As to `CCS(=O)(=O)c1ccc(CC(=O)Nc2nc3c(s2)CN(C[C@H]2CC[C@@H](C(F)(F)F)CC2)C3C(C)C)cc1` (stereo partly drawn), in assay [1], the IC50 is more than 1000 nM. The Ki in assay [2] was less than 100 nM.
The like results for `CCS(=O)(=O)c1ccc(CC(=O)Nc2nc3c(s2)CN(Cc2ccc(C#N)cc2C(F)(F)F)[C@H]3C(C)C)cc1` were, in that order, more than 1000 nM and less than 100 nM.
The like results for `CCS(=O)(=O)c1ccc(CC(=O)Nc2nc3c(s2)CN(Cc2c(F)cc(C#N)cc2F)[C@H]3C(C)C)cc1` were, in that order, 100 to 1000 nM and less than 100 nM.
Take `CCS(=O)(=O)c1ccc(CC(=O)Nc2nc3c(s2)CN(Cc2ccc(C)nn2)[C@H]3C(C)C)cc1`: in assay [1], the IC50 is more than 1000 nM. In assay [2], the Ki was less than 100 nM.
The corresponding values for `CCS(=O)(=O)c1ccc(CC(=O)Nc2nc3c(s2)C(C)N(Cc2ccc(Cl)cc2)[C@H]3C(C)C)cc1` (stereo partly drawn) are less than 100 nM and less than 100 nM.
The corresponding values for `CCS(=O)(=O)c1ccc(CC(=O)Nc2nc3c(s2)C(C)N(Cc2ccc(C#N)cc2)[C@H]3C(C)C)cc1` (stereo partly drawn) are 100 to 1000 nM and less than 100 nM.
The like results for `CCOC(=O)c1cnc(N2Cc3sc(NC(=O)Cc4ccc(S(=O)(=O)CC)cc4)nc3[C@]2(C)C(C)C)nc1C(F)(F)F` were, in that order, more than 1000 nM and less than 100 nM.
Turning to `CCS(=O)(=O)c1ccc(CC(=O)Nc2nc3c(s2)CN(Cc2ccc(Cl)cc2)[C@@]3(C)C(C)C)cc1`, in assay [1], the IC50 is less than 100 nM. Moreover, the Ki in assay [2] is less than 100 nM.
In the case of `CCS(=O)(=O)c1cnc(CC(=O)Nc2nc3c(s2)CN(Cc2ccc(C#N)cc2)[C@H]3C(C)C)nc1`, in assay [1], the IC50 fell in the range of 100 to 1000 nM. Moreover, the inhibition constant Ki in assay [2] is less than 100 nM.
Take `CC[C@@]1(C)c2nc(NC(=O)Cc3ccc(S(=O)(=O)CC)cc3)sc2CN1Cc1ccc(C#N)cc1`: the IC50 in assay [1] is 100 to 1000 nM. Besides, the Ki in assay [2] is less than 100 nM.
On to `CC[C@@]1(C)c2nc(NC(=O)Cc3ccc(S(=O)(=O)CC)cc3)sc2CN1Cc1ccc(Cl)cc1`, for which, in assay [1], the IC50 is less than 100 nM. In assay [2], the Ki was less than 100 nM.
For `CCS(=O)(=O)c1ccc(CC(=O)Nc2nc3c(s2)CN(Cc2ccc(OC(F)(F)F)c(Cl)c2)[C@H]3C(C)C)nc1`, in assay [1], the IC50 is less than 100 nM. Also, the inhibition constant (Ki) in assay [2] is less than 100 nM.
For `CCS(=O)(=O)c1ccc(CC(=O)Nc2nc3c(s2)CN(c2ncc(C(C)=O)c(C(F)(F)F)n2)[C@H]3C(C)C)cc1`, the IC50 in assay [1] was more than 1000 nM. In addition, the Ki in assay [2] is less than 100 nM.
For the compound `CC(C)[C@H]1c2nc(NC(=O)Cc3ccc(C#N)cc3)sc2CN1Cc1ccc(C#N)c(Cl)c1`, the IC50 in assay [1] fell in the range of 100 to 1000 nM. In addition, in assay [2], the Ki was less than 100 nM.
On to `CCS(=O)(=O)c1cnc(CC(=O)Nc2nc3c(s2)CN(Cc2ccc(C(F)(F)F)cc2)[C@H]3C(C)C)nc1`, for which the IC50 in assay [1] was 100 to 1000 nM. For the same compound, the Ki in assay [2] is less than 100 nM.
The like results for `CC(C)[C@H]1c2nc(NC(=O)Cc3ccc(C(N)=O)cc3)sc2CN1Cc1ccc(Cl)cc1` were, in that order, 100 to 1000 nM and less than 100 nM.
The like results for `Cc1nc(C(F)(F)F)ccc1CN1Cc2sc(NC(=O)Cc3ccc(S(C)(=O)=O)cc3F)nc2[C@@H]1C(C)C` were, in that order, less than 100 nM and less than 100 nM.
The like results for `CCS(=O)(=O)c1ccc(CC(=O)Nc2nc3c(s2)CN(Cc2ccc(N)nc2)[C@H]3C(C)C)cc1` were, in that order, more than 1000 nM and less than 100 nM.
Regarding `CCS(=O)(=O)c1ccc(CC(=O)Nc2nc3c(s2)CN(Cc2cnc(C)nc2)[C@H]3C(C)C)cc1`, the IC50 in assay [1] lay within 100 to 1000 nM. Besides, in assay [2], the Ki was less than 100 nM.
As to `CC[C@H]1c2nc(NC(=O)Cc3ccc(CO)cc3)sc2CN1Cc1ccc(Cl)cc1`, the 50% inhibitory concentration (IC50) in assay [1] was 100 to 1000 nM. Besides, in assay [2], the Ki was less than 100 nM.
The like results for `CC(C)[C@H]1c2nc(NC(=O)Cc3ccc(C(=O)O)cc3)sc2CN1Cc1ccc(Cl)cc1` were, in that order, 100 to 1000 nM and less than 100 nM.
The corresponding values for `CC(C)[C@H]1c2nc(NC(=O)Cc3ccc(S(C)(=O)=O)cc3)sc2CN1Cc1ccc(-c2nnnn2C)cc1` are less than 100 nM and less than 100 nM.
The like results for `Cc1nnc(-c2ccc(CN3Cc4sc(NC(=O)Cc5ccc(S(C)(=O)=O)cc5)nc4[C@@H]3C(C)C)cc2)o1` were, in that order, less than 100 nM and less than 100 nM.
In the case of `CCS(=O)(=O)c1ccc(CNC(=O)c2nc3c(s2)CN(CC2CN(CC(F)(F)F)CCO2)[C@H]3C(C)C)cc1` (stereo partly drawn), the IC50 in assay [1] was more than 1000 nM. Further, the inhibition constant (Ki) in assay [2] is less than 100 nM.
The like results for `CCS(=O)(=O)c1ccc(CNC(=O)c2nc3c(s2)CN(CC2CN(C(=O)OC(C)(C)C)CCO2)[C@H]3C(C)C)cc1` (stereo partly drawn) were, in that order, less than 100 nM and less than 100 nM.
Take `CCS(=O)(=O)c1cnc(CC(=O)Nc2nc3c(s2)CN(Cc2ccc(Cl)cc2)[C@H]3C(C)C)nc1`: in assay [1], the IC50 was in the range of 100 to 1000 nM. The inhibitory constant (Ki) in assay [2] was less than 100 nM.
The like results for `CC(C)[C@H]1c2nc(NC(=O)Cc3ccc(S(C)(=O)=O)cc3)sc2CN1[C@H](C)c1ccc(C#N)cc1Cl` were, in that order, 100 to 1000 nM and less than 100 nM.
Take `CCS(=O)(=O)c1ccc(CC(=O)Nc2nc3c(s2)CN(Cc2ccncc2)[C@H]3C(C)C)cc1`: the IC50 in assay [1] was more than 1000 nM. The Ki in assay [2] was less than 100 nM.
Regarding `CCS(=O)(=O)c1ccc(CC(=O)Nc2nc3c(s2)CN(Cc2ccc(CO)cc2)[C@H]3C(C)C)cc1`, in assay [1], the IC50 was in the range of 100 to 1000 nM. Moreover, the inhibition constant (Ki) in assay [2] is less than 100 nM.
For the compound `CC[C@H]1c2nc(NC(=O)Cc3ccc(S(C)(=O)=O)cc3)sc2CN1Cc1ccc2nn[nH]c2c1`, the IC50 in assay [1] lay in the range of 100 to 1000 nM. The inhibitory constant (Ki) in assay [2] was less than 100 nM.
The like results for `CCS(=O)(=O)c1ccc(CC(=O)Nc2nc3c(s2)CN(c2ncc(C(F)(F)F)cn2)[C@H]3C(C)C)cc1` were, in that order, more than 1000 nM and less than 100 nM.
The like results for `CCOC(=O)c1cnc(N2Cc3sc(NC(=O)Cc4ccc(S(=O)(=O)CC)cc4)nc3[C@@H]2C(C)C)nc1C(F)(F)F` were, in that order, more than 1000 nM and less than 100 nM.
The like results for `CCS(=O)(=O)c1ccc(CC(=O)Nc2nc3c(s2)CN(c2nc(C)cc(C(F)(F)F)n2)[C@H]3C(C)C)cc1` were, in that order, more than 1000 nM and less than 100 nM.
Consider `CC(C)[C@H]1c2nc(NC(=O)Cc3ccc(C#N)cc3)sc2CN1Cc1ccc(C#N)cc1`, for which, in assay [1], the IC50 was in the range of 100 to 1000 nM. In addition, the Ki in assay [2] is less than 100 nM.
The like results for `CCS(=O)(=O)c1ccc(CC(=O)Nc2nc3c(s2)CN(c2nccc(C(F)(F)F)n2)[C@H]3C(C)C)cc1` were, in that order, more than 1000 nM and less than 100 nM.
The corresponding values for `CCS(=O)(=O)c1ccc(CC(=O)Nc2nc3c(s2)CN(Cc2ccc(C(F)(F)F)cn2)[C@H]3C(C)C)nc1` are 100 to 1000 nM and less than 100 nM.
